Assay results as given in article PMC11942486, “The Impact of a Quinone Scaffold on Thermo-TRPs Modulation by Dimethylheptyl Phytocannabinoids” (International Journal of Molecular Sciences, 2025).
Several values for one entry are separate records, joined by “and”; a condition that tells them apart may be missing. Equal values may be shown once. Read-outs that look alike come from different tables or passages of the source.

How the values were obtained:
Format in all cases: cell-based
[1] = target: T1, rat TRPM8 (Rattus norvegicus, UniProt Q8R455); experiment: Thermo-TRP assay: [Ca2+]i elevation (Fluo-4) in HEK-293 cells transfected with TRPM8
T1 construct: expressed in transfected cells
T1 sequence (Q8R455 whole entry): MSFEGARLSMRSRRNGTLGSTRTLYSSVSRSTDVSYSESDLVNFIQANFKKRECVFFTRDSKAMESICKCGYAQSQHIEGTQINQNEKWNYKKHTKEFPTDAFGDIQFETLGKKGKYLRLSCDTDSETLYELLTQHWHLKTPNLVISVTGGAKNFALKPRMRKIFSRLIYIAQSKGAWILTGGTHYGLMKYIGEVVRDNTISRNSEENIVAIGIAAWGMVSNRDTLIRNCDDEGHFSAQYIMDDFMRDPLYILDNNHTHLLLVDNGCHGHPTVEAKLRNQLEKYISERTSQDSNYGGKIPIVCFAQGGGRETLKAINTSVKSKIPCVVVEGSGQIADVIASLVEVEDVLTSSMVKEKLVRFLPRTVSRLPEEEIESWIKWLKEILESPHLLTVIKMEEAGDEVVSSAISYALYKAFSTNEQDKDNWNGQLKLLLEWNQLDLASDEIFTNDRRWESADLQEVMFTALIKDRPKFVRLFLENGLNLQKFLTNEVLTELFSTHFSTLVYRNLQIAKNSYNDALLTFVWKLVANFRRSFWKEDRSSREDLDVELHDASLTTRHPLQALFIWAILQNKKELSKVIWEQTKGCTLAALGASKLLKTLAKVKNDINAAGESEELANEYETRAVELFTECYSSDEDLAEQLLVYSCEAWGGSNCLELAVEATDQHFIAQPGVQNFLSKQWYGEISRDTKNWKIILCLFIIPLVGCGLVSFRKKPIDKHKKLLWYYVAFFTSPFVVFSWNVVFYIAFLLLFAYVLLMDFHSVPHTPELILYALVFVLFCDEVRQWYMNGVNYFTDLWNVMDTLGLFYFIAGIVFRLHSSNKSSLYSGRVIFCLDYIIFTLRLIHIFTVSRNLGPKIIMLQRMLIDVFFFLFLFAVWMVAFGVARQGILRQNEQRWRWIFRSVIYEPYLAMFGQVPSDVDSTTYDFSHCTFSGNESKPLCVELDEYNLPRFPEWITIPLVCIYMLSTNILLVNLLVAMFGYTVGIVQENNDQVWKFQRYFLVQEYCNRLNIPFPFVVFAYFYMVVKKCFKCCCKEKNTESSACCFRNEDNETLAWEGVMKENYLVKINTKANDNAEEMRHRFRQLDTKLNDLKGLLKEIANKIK
Method: (§1) The compounds were tested on HEK-293 cells either stably transfected with rat TRPA1, TRPV2, TRPV3, TRPV4, TRPM8 or human TRPV1 or not-transfected, by performing a continuous monitoring of the intracellular calcium ([Ca^2+]i) elevation during the experiments, following the protocol already described. […] Cell fluorescence before and after the addition of various concentrations of tested compounds was measured, normalizing the effects against the response to ionomycin (IM, 4 μM). The effect on [Ca^2+]i in non-transfected HEK-293 cells were used as the baseline and subtracted from the values obtained from the transfected ones. The efficacy of the agonists was determined by normalizing their effect to the maximum Ca^2+ influx effect on [Ca^2+]i observed with application of 4μM ionomycin. The effects of TRPA1 agonists are expressed as a percentage of the effect obtained with 100 μM allyl isothiocyanate (AITC). In the TRPV3 assay, rat TRPV3-expressing HEK-293 cells were first sensitized with the structurally unrelated agonist 2-aminoethoxydiphenyl borate (100 μM). For the TRPM8, the experiments were carried out at 22 °C. The potency (EC50 values) is determined as the concentration required to produce half-maximal increases in [Ca^2+]i. […] A dose-response curve fitting (sigmoidal dose-response variable slope) and parameter estimation were performed with Graph-Pad Prism 8 (GraphPad Software Inc., San Diego, CA, USA). All determinations were performed at least in triplicate.

[2] = target: T2, human TRPV1 (Homo sapiens, UniProt Q8NER1); experiment: Thermo-TRP assay: [Ca2+]i elevation (Fluo-4) in HEK-293 cells transfected with TRPV1
T2 construct: expressed in transfected cells
T2 sequence (Q8NER1 whole entry): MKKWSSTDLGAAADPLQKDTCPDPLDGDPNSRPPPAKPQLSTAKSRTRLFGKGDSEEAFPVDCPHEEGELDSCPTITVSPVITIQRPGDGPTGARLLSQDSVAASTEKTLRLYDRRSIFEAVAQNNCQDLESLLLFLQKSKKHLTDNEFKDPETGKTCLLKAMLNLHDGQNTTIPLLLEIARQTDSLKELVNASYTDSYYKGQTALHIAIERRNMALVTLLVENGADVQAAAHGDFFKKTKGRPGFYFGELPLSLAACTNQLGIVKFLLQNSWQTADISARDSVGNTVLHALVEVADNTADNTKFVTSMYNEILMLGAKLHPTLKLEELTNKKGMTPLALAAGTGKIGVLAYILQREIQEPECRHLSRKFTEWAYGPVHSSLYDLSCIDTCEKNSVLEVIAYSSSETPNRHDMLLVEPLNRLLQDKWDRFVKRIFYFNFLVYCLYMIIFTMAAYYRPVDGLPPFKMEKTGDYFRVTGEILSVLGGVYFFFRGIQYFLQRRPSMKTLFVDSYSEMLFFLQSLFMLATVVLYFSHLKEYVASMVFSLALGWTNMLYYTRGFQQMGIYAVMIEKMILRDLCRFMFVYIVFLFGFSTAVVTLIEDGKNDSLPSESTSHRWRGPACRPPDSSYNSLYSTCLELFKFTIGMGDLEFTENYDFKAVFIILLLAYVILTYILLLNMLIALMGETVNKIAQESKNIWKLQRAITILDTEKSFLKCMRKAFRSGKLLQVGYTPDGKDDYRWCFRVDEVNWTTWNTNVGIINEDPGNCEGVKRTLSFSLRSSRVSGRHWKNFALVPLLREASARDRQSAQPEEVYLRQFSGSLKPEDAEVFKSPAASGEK
Method: as §1

[3] = target: T3, rat TRPA1 (Rattus norvegicus, UniProt Q6RI86); experiment: Thermo-TRP assay: [Ca2+]i elevation (Fluo-4) in HEK-293 cells transfected with TRPA1; details: for TRPA1 Efficacy (% AITC 100 μM): agonist effect as % of AITC 100 μM, HEK-293 rat TRPA1; for IC50: antagonist/desensitizing, added 5 min before AITC 100 μM, read-out: IC50 TRPA1; for EC50: half-maximal increase in [Ca2+]i, read-out: TRPA1 Potency EC50
T3 construct: expressed in transfected cells
T3 sequence (Q6RI86 whole entry): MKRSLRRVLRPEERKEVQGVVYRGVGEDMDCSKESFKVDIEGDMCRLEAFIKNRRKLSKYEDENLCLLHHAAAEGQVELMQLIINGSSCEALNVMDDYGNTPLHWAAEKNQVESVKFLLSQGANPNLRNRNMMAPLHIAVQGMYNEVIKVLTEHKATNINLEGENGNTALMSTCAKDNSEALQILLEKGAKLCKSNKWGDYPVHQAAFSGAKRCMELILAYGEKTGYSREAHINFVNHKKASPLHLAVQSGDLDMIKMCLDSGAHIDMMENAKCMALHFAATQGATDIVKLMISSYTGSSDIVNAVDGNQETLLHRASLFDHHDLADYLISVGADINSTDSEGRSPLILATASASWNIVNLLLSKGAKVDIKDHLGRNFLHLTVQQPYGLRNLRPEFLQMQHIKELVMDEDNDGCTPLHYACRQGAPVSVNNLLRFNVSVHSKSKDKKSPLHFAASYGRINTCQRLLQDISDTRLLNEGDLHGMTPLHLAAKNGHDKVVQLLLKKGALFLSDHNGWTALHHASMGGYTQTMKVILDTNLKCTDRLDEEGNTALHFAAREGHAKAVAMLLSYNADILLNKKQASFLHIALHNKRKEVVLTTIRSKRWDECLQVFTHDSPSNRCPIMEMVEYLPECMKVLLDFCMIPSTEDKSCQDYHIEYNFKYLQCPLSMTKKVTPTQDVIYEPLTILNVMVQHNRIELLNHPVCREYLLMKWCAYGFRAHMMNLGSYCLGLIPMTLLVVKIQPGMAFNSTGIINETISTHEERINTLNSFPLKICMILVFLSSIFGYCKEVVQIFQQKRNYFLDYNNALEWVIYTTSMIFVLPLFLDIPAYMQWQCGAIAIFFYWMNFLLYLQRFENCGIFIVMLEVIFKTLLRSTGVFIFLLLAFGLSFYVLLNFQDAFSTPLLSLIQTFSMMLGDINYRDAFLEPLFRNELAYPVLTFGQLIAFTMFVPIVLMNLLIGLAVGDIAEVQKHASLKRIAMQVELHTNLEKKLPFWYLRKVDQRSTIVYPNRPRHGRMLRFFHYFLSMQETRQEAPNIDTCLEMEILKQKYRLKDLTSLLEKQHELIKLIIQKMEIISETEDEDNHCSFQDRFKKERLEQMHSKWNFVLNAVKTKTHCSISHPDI
Method: as §1

[4] = target: T4, rat TRPV3 (Rattus norvegicus, UniProt Q4QYD9); experiment: Thermo-TRP assay: [Ca2+]i elevation (Fluo-4) in HEK-293 cells transfected with TRPV3; details: for TRPV3 Efficacy (% Ionomycin 4 μM): agonist effect as % of ionomycin 4 μM, cells sensitized with 2-aminoethoxydiphenyl borate 100 μM; for IC50: antagonist/desensitizing, vs Thymol 100 μM; for EC50: half-maximal increase in [Ca2+]i, read-out: TRPV3 Potency EC50
T4 construct: expressed in transfected cells
T4 sequence (Q4QYD9 1-791): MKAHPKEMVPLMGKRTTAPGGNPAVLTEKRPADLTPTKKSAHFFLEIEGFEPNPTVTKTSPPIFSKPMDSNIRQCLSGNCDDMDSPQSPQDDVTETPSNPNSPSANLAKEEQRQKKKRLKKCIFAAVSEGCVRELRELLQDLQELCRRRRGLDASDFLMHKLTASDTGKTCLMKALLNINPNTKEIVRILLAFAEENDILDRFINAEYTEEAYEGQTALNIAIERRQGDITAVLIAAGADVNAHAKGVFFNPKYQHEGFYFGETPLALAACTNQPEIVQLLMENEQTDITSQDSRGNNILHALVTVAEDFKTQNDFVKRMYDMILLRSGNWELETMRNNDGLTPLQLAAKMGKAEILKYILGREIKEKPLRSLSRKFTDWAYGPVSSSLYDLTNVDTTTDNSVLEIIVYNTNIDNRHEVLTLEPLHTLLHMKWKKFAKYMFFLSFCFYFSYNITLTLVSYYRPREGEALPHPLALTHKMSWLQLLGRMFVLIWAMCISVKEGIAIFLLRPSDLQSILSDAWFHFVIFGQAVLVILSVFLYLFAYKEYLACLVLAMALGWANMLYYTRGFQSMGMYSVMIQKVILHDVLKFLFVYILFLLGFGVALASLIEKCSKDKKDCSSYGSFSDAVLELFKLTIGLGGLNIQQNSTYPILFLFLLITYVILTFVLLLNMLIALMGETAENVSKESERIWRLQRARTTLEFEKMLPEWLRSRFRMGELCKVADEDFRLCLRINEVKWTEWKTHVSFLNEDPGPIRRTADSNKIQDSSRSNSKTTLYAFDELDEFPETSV
Method: The compounds were tested on HEK-293 cells either stably transfected with rat TRPA1, TRPV2, TRPV3, TRPV4, TRPM8 or human TRPV1 or not-transfected, by performing a continuous monitoring of the intracellular calcium ([Ca^2+]i) elevation during the experiments, following the protocol already described. On the day of the experiment, the cells were loaded for 1 h in the dark at room temperature with the fluorescent probe Fluo-4 AM (4 μM in DMSO containing 0.02% Pluronic F-127). The cells were rinsed, resuspended in Tyrode’s solution (145 mM NaCl, 2.5 mM KCl, 1.5 mM CaCl2, 1.2 mM MgCl2, 10 mM D-glucose, and 10 mM HEPES, pH 7.4), and transferred to a quartz cuvette of a spectrofluorimeter (PerkinElmer LS50B; λEX = 488 nm, λEM = 516 nm) equipped with a PTP-1 fluorescence Peltier system (PerkinElmer Life and Analytical Sciences, Waltham, MA, USA) under continuous stirring. Cell fluorescence before and after the addition of various concentrations of tested compounds was measured, normalizing the effects against the response to ionomycin (IM, 4 μM). The effect on [Ca^2+]i in non-transfected HEK-293 cells were used as the baseline and subtracted from the values obtained from the transfected ones. The efficacy of the agonists was determined by normalizing their effect to the maximum Ca^2+ influx effect on [Ca^2+]i observed with application of 4μM ionomycin. The effects of TRPA1 agonists are expressed as a percentage of the effect obtained with 100 μM allyl isothiocyanate (AITC). In the TRPV3 assay, rat TRPV3-expressing HEK-293 cells were first sensitized with the structurally unrelated agonist 2-aminoethoxydiphenyl borate (100 μM). For the TRPM8, the experiments were carried out at 22 °C. The potency (EC50 values) is determined as the concentration required to produce half-maximal increases in [Ca^2+]i. Antagonist/desensitizing behavior is evaluated against the agonist of the TRP analyzed by adding the compounds directly in the quartz cuvette 5 min before stimulation of cells with the agonist (allylisothiocyanate (100 μM) for TRPA1, capsaicin (0.1 μM) for TRPV1, cannabidiol (2 μM) for TRPV2, thymol (100 μM) for TRPV3, GSK1016790A (10 nM) for TRPV4, and icilin (0.25 μM) for TRPM8). The IC50 value is expressed as the concentration exerting a half-maximal inhibition of the agonist effect, taking as 100% the effect on [Ca^2+]i exerted by the agonist alone. A dose-response curve fitting (sigmoidal dose-response variable slope) and parameter estimation were performed with Graph-Pad Prism 8 (GraphPad Software Inc., San Diego, CA, USA). All determinations were performed at least in triplicate.

[5] = vs Icilin 0.25 μM, 22 °C, read-out: IC50 TRPM8
[6] = vs Capsaicin 0.1 μM, read-out: IC50 TRPV1

Compound	IC50 [1, 5]	IC50 [2, 6]	TRPA1 Efficacy (% AITC 100 μM) [3]	IC50 [3]	EC50 [3]	TRPV3 Efficacy (% Ionomycin 4 μM) [4]	IC50 [4]	EC50 [4]	IC50 [1]	IC50 [2]
C=C(C)[C@@H]1CCC(C)=C[C@H]1C1=C(O)C(=O)C(C(C)(C)CCCCCC)=CC1=O [5b]	1.2 ± 0.1 µM	> 100 µM	120.4 ± 3.0%	3.5 ± 0.2 µM	5.2 ± 0.8 µM	64.3 ± 0.9%	0.76 ± 0.01 µM	0.46 ± 0.02 µM		
CCCCCCC(C)(C)C1=CC2=C(C(=O)C1=O)[C@@H]1CC(C)=CC[C@H]1C(C)(C)O2 [6b]			147.3 ± 7.3%	1.8 ± 0.3 µM	4.4 ± 1.25 µM	66.8 ± 2.2%	0.72 ± 0.08 µM	0.5 ± 0.1 µM	> 100 µM	> 100 µM
CCCCCCC(C)(C)C1=CC(=O)C(C/C=C(\C)CCC=C(C)C)=C(O)C1=O [7b, p-DMHCBGQ]	14.9 ± 3.9 µM	> 100 µM	114.2 ± 4.1%	1.1 ± 0.1 µM	1.1 ± 0.2 µM	51.1 ± 1.0%	< 10 µM and 8.6 µM	1.5 ± 0.2 µM		
CCCCCCC(C)(C)C1=CC(=O)C2=C(OC(C)(CCC=C(C)C)C=C2)C1=O (centres unmarked) [8b]	> 100 µM	> 100 µM	111.2 ± 2.1%	0.35 ± 0.02 µM	0.19 ± 0.03 µM	37.55 ± 0.85%	38.3 ± 2 µM	13.6 ± 1.8 µM		
